System: individuals with hypertension
Assay: Blood pressure and heart rate response to metoprolol by β1AR codon 389 / codon 49 genotype
Format: in vivo, human
Settings: for 24 hr SBP response (% change) / 24 hr DBP response (% change) / Daytime DBP response (% change) / Daytime SBP response (% change) / Nighttime DBP response (% change) / Nighttime SBP response (% change): at least 4 weeks
Experimental: Genetic variation (polymorphisms) in the gene encoding the beta 1-adrenergic receptor (β1AR) contribute to the variability in response to beta-blockers. There are two common, non-synonymous polymorphisms of the P AR gene and they result in either a serine (Ser) or glycine (Gly) at codon 49, and arginine (Arg) or glycine (Gly) at codon 389. The relationship between these polymorphisms and heart rate and blood pressure response to the beta-blocker metoprolol was tested in 28 individuals with hypertension.
Patients were washed out from all their antihypertensive medications for at least 2 weeks. They then underwent baseline testing which included recording of 24-hour ambulatory blood pressure data and treadmill exercise heart rate responses at 10 AM and 2 PM. Patients were started on metoprolol and titrated to a dose that produced a diastolic blood pressure DBP<90 mm Hg, or until they reached the maximum dose (200 mg twice daily). Patients were maintained on this target dose for at least 4 weeks and then underwent repeat studies, as at baseline.
Patients were also divided as responders or non-responders, with non-responders defined as those with a <10% decline in DBP, and compared allele frequencies in these groups.

[1] = Arg389Arg genotype, metoprolol titrated
[2] = Ser49Ser genotype, metoprolol titrated
[3] = codon 49 Gly carriers, metoprolol titrated
[4] = codon 389 Gly carriers, metoprolol titrated

Which “24 hr SBP response (% change)” value (Arg389Arg genotype, metoprolol titrated to DBP<90 mm Hg or max 200 mg twice daily, 24-hour ambulatory BP vs baseline) does the source give for `COCCc1ccc(OCC(O)CNC(C)C)cc1` (stereo not drawn) [metoprolol] here?
The value was −10.5 ± 7.9 % change.

And the “24 hr DBP response (% change)” value [1]?
The value was −12.6 ± 7.4 % change.

What about the “Daytime DBP response (% change)” value [1] of the same compound?
Its value is −13.6 ± 7.2 % change.

And the “Daytime SBP response (% change)” value [1]?
The value was −11.6 ± 8.0 % change.

And the “Nighttime DBP response (% change)” value [1]?
Its value is −10.6 ± 11.6 % change.

What about the “Nighttime SBP response (% change)” value [1] of the same compound?
Its value is −7.5 ± 9.5 % change.

What about the “Daytime blood pressure response” value (Arg389 homozygotes compared to carriers of Gly389, not nighttime) of the same compound?
Its value is “significantly greater”.

And the “24 hr DBP response (% change)” value [2]?
The value was −10.7 ± 7.8 % change.

And the “24 hr SBP response (% change)” value [2]?
Its value is −10.1 ± 9.1 % change.

What about the “Daytime DBP response (% change)” value [2] of the same compound?
The value was −10.3 ± 8.2 % change.

And the “Daytime SBP response (% change)” value [2]?
Its value is −10.2 ± 9.3 % change.

What about the “Nighttime DBP response (% change)” value [2] of the same compound?
Its value is −12.4 ± 9.4 % change.

And the “Nighttime SBP response (% change)” value [2]?
Its value is −9.3 ± 10.9 % change.

What about the “change in nighttime blood pressure” value (Ser49 homozygotes compared to carriers of the Gly49 allele) of the same compound?
Its value is “significantly greater”.

And the “24 hr DBP response (% change)” value [3]?
The value was −3.9 ± 8.9 % change.

What about the “24 hr SBP response (% change)” value [3] of the same compound?
The value was −0.6 ± 12.2 % change.

What about the “Daytime DBP response (% change)” value [3] of the same compound?
The value was −4.0 ± 10.4 % change.

What about the “Daytime SBP response (% change)” value [3] of the same compound?
Its value is −1.0 ± 12.8 % change.

What about the “Nighttime DBP response (% change)” value [3] of the same compound?
The value was −3.1 ± 9.0 % change.

What about the “Nighttime SBP response (% change)” value [3] of the same compound?
Its value is “+0.6 ± 11.8 % change”.

What about the “24 hr DBP response (% change)” value [4] of the same compound?
Its value is −4.6 ± 8.3 % change.

And the “Daytime DBP response (% change)” value [4]?
Its value is −3.5 ± 8.7 % change.

And the “Daytime SBP response (% change)” value [4]?
The value was −2.8 ± 12.5 % change.

What about the “Nighttime DBP response (% change)” value [4] of the same compound?
Its value is −7.3 ± 9.1 % change.

What about the “Nighttime SBP response (% change)” value [4] of the same compound?
Its value is −3.9 ± 13.9 % change.

And the “24 hr SBP response (% change)” value (codon 389 Gly carriers, metoprolol titrated, ambulatory BP vs baseline)?
Its value is −3.3 ± 12.6 % change.

And the “heart rate response to beta-blockade” value (treadmill exercise heart rate, relation to β1AR genotype)?
The value was “not associated with genotype”.

Source: patent US20040033524A1, “Beta-adrenoceptor genetic polymorphisms and obesity” (priority 2001, published 2004)
